# Measurements as given in patent publication US7319094B2, “Increased and sustained in vivo gene expression using a nucleic acid, histone and amphipathic compound composition” (Rhode Island Hospital, priority 2001, dated 2008).
# Columns and labels:
# AD7c-NTP = AD7c-NTP expression in stably transfected PNET2 cells (LacSwitch II inducible system), Western blot / MICE assay; assay type: cell-based, human
# Text: Prior to the invention, cells stably transfected with AD7c-NTP could not be maintained because of progressive cell death. Therefore, an inducible system of AD7c-NTP expression was established using the LacSwitch II mammalian expression vector (Stratagene, La Jolla, Calif.). PNET2 human CNS neuronal cells were stably transfected with the pCMVLacII vector in which the Lac repressor protein driven by a CMV promoter. The Lac repressor protein is targeted to the nucleus by the nuclear localization sequence. […]
# Standard Western blot assays wew used to measure cellular levels of p53, Bcl-2, p21/Waf1, phospho-tau, tau, c-fos, NTP, and activated (phosphorylated) forms of Erk mitogen activated protein (MAP) kinase, amino-terminal c-jun-activated kinase (pJNK), and p38/HOG1. […] Protein concentrations were measured using the BCA assay (Pierce, Rockford, Ill.). Samples containing 60 μg of protein were fractionated by sodium dodecyl sulfate polyacrylamide gel electrophoresis (SDS-PAGE), then transferred to PVDF membranes, and analyzed by Western immunoblotting. Immunoreactivity was detected with horseradish peroxidase conjugated secondary IgG and PicoWest enhanced chemiluminescence reagents (Pierce Chemical Company, Rockford, Ill.). CAT activity was measured using known methods. […]
# GAPDH = GAPDH immunoreactivity in AD7c-NTP-transfected PNET2 cells, MICE assay; assay type: cell-based, human; settings: IPTG 3 mM
# Text: The MICE assay is known in the art (e.g., as described by de la Monte et al., 1999, Biotechniques 26:107301076). The assay is a rapid and sensitive method for quantifying immunoreactivity in 96-well micro-cultures and combines the advantages of the enzyme-linked immunosorbant assay with immunocytochemical staining to permit sensitive in situ quantification of protein expression with values normalized to cell density. The cells were fixed in Histochoice (Amresco, Solon, Ohio), permeabilized with 0.05% saponin in Tris-buffered saline (50 mM Tris, pH 7.5, 0.9% NaCl; TBS), and blocked with Superblock-TBS (Pierce, Rockford, Ill.). […] Immunoreactivity was detected using horseradish peroxidase conjugated secondary antibody (Pierce, Rockford, Ill.) and the TMB soluble peroxidase substrate (Pierce, Rockford, Ill.). Absorbances were measured at 450 nm using a Spectracount plate reader.
# To compare the levels of protein expression it was necessary to correct for differences in cell density. […] The absorbances (560 nm) were measured using a Spectracount plate reader (Packard Instrument Company, Meriden, Conn.). The MICE index was calculated from the ratio of the absorbances measured for immunoreactivity and cell density. Coomassie blue absorbance increases linearly with cell density between 1×10^4 and 5×10^5 cells per well. Eight or 16 replicate culture wells were analyzed in each experiment. […]
compound,measurement,setting,value
"CC(C)S[C@@H]1O[C@H](CO)[C@H](O)[C@H](O)[C@H]1O [IPTG, Isopropyl-1-[…]-D-thiogalactopyranoside]",increase in N314-immunoreactive NTP (MICE assay),"AD7c-NTP; IPTG 3 mM, 24 hours of induction",greater than five-fold
same,optimum concentration for inducing gene expression,AD7c-NTP; PNET2 clones,3 mM
same,levels of GAPDH (MICE assay),GAPDH,no change
